Data from patent US20020111274A1, “1-alkyl-3-[1-(substituted phenyl) benzotriazol-6-yl] uracils” (BASF Aktiengesellschaft, priority 2000, published 2002).

Legend:
Set-up in all cases: scale not given here
ABUTH Velvetleaf [1] = test: Postemergence herbicidal evaluation, ABUTH; type: in vivo, Abutilon theophrasti, Medic.; settings: postemergence spray, rated about two-three weeks after treatment
How it was run: (§1)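 Visual injury rating ~2–3 wk post-spray; replicate tests averaged. Two-week-old seedlings; foliar spray at 40 psi; 0.006–0.400 kg ai/ha in 80/20 acetone/water + 1.0% methylated seed oil.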

AMBEL Ragweed, Common [2] = test: Postemergence herbicidal evaluation, AMBEL; type: in vivo, Ambrosia artemisifolia, L.; settings: postemergence spray, rated about two-three weeks after treatment
How it was run: as §1

CASOB Sicklepod [3] = test: Postemergence herbicidal evaluation, CASOB; type: in vivo, Cassia obtusifolia, L.; settings: postemergence spray, rated about two-three weeks after treatment
How it was run: as §1

[4] = test system: CHEAL Lambsquarters, Common; test: Postemergence herbicidal evaluation, CHEAL; type: in vivo, Chenopodium album, L.; settings: postemergence spray, rated about two-three weeks after treatment
How it was run: as §1

ECHOG Barnyardgrass [5] = test: Postemergence herbicidal evaluation, ECHOG; type: in vivo, Echinochloa crus-galli, (L.) Beau; settings: postemergence spray, rated about two-three weeks after treatment
How it was run: as §1

GALAP Galium [6] = test: Postemergence herbicidal evaluation, GALAP; type: in vivo, Galium aparine; settings: postemergence spray, rated about two-three weeks after treatment
How it was run: as §1

[7] = test system: IPOHE Morningglory, Ivyleaf; test: Postemergence herbicidal evaluation, IPOHE; type: in vivo, Ipomoea hederacea, (L.) Jacq.; settings: postemergence spray, rated about two-three weeks after treatment
How it was run: as §1

SETVI Foxtail, Green [8] = test: Postemergence herbicidal evaluation, SETVI; type: in vivo, Setaria viridis, (L.) Beau; settings: postemergence spray, rated about two-three weeks after treatment
How it was run: as §1

GLXMAW Soybean, Williams [9] = test: Postemergence herbicidal evaluation, GLXMAW; type: in vivo, Glycine max, (L.) Merr. cv Williams; settings: postemergence spray, rated about two-three weeks after treatment
How it was run: as §1

[10] = test system: TRZAWR Wheat, Winter, cv Riband; test: Postemergence herbicidal evaluation, TRZAWR; type: in vivo, Triticum aestivum; settings: postemergence spray, rated about two-three weeks after treatment
How it was run: as §1

ORYSAT Rice, Tebonnet [11] = test: Postemergence herbicidal evaluation, ORYSAT; type: in vivo, Oryza sativa, (L.); settings: postemergence spray, rated about two-three weeks after treatment
How it was run: as §1

ZEAMX Corn, Field [12] = test: Postemergence herbicidal evaluation, ZEAMX; type: in vivo, Zea mays, L. (Sammel-Bezeichnung); settings: postemergence spray, rated about two-three weeks after treatment
How it was run: as §1

ABUTH Velvetleaf [13] = test: Preemergence herbicidal evaluation, ABUTH; type: in vivo, Abutilon theophrasti, Medic.; settings: preemergence
How it was run: (§2)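 First, seed is blended with potting soil and sown over roughly an inch of soil per cup. Next, the surface is sprayed with an aqueous acetone solution delivering about 0.013–0.800 kg/ha. Finally, cups are grown in the greenhouse and rated after 4–5 weeks.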

AMBEL Ragweed, Common [14] = test: Preemergence herbicidal evaluation, AMBEL; type: in vivo, Ambrosia artemisifolia, L.; settings: preemergence
How it was run: as §2

CASOB Sicklepod [15] = test: Preemergence herbicidal evaluation, CASOB; type: in vivo, Cassia obtusifolia, L.; settings: preemergence
How it was run: as §2

[16] = test system: CHEAL Lambsquarters, Common; test: Preemergence herbicidal evaluation, CHEAL; type: in vivo, Chenopodium album, L.; settings: preemergence
How it was run: as §2

ECHOG Barnyardgrass [17] = test: Preemergence herbicidal evaluation, ECHOG; type: in vivo, Echinochloa crus-galli, (L.) Beau; settings: preemergence
How it was run: as §2

GALAP Galium [18] = test: Preemergence herbicidal evaluation, GALAP; type: in vivo, Galium aparine; settings: preemergence
How it was run: as §2

[19] = test system: IPOHE Morningglory, Ivyleaf; test: Preemergence herbicidal evaluation, IPOHE; type: in vivo, Ipomoea hederacea, (L.) Jacq.; settings: preemergence
How it was run: as §2

SETVI Foxtail, Green [20] = test: Preemergence herbicidal evaluation, SETVI; type: in vivo, Setaria viridis, (L.) Beau; settings: preemergence
How it was run: as §2

GLXMAW Soybean, Williams [21] = test: Preemergence herbicidal evaluation, GLXMAW; type: in vivo, Glycine max, (L.) Merr. cv Williams; settings: preemergence
How it was run: as §2

[22] = test system: TRZAWR Wheat, Winter, cv Riband; test: Preemergence herbicidal evaluation, TRZAWR; type: in vivo, Triticum aestivum; settings: preemergence
How it was run: as §2

ORYSAT Rice, Tebonnet [23] = test: Preemergence herbicidal evaluation, ORYSAT; type: in vivo, Oryza sativa, (L.); settings: preemergence
How it was run: as §2

ZEAMX Corn, Field [24] = test: Preemergence herbicidal evaluation, ZEAMX; type: in vivo, Zea mays, L. (Sammel-Bezeichnung); settings: preemergence
How it was run: as §2

C#CCOC(=O)COc1ccc(C)cc1-n1nnc2cc(F)c(-n3c(=O)cc(C(F)(F)F)n(C)c3=O)cc21 [Example 40]
Postemergence herbicidal rating ABUTH (ABUTH Velvetleaf [1]; 0.008 kg/ha): 9.0
Postemergence herbicidal rating ABUTH (ABUTH Velvetleaf [1]; 0.016 kg/ha): 9.0
Postemergence herbicidal rating ABUTH (ABUTH Velvetleaf [1]; 0.032 kg/ha): 9.0
Postemergence herbicidal rating ABUTH (ABUTH Velvetleaf [1]; 0.062 kg/ha): 9.0
Postemergence herbicidal rating AMBEL (AMBEL Ragweed, Common [2]; 0.008 kg/ha): 9.0
Postemergence herbicidal rating AMBEL (AMBEL Ragweed, Common [2]; 0.016 kg/ha): 7.0
Postemergence herbicidal rating AMBEL (AMBEL Ragweed, Common [2]; 0.032 kg/ha): 9.0
Postemergence herbicidal rating AMBEL (AMBEL Ragweed, Common [2]; 0.062 kg/ha): 7.0
Postemergence herbicidal rating CASOB (CASOB Sicklepod [3]; 0.008 kg/ha): 1.0
Postemergence herbicidal rating CASOB (CASOB Sicklepod [3]; 0.016 kg/ha): 1.0
Postemergence herbicidal rating CASOB (CASOB Sicklepod [3]; 0.032 kg/ha): 3.0
Postemergence herbicidal rating CASOB (CASOB Sicklepod [3]; 0.062 kg/ha): 6.0
Postemergence herbicidal rating CHEAL ([4]; 0.008 kg/ha): 4.0
Postemergence herbicidal rating CHEAL ([4]; 0.016 kg/ha): 3.0
Postemergence herbicidal rating CHEAL ([4]; 0.032 kg/ha): 7.0
Postemergence herbicidal rating CHEAL ([4]; 0.062 kg/ha): 9.0
Postemergence herbicidal rating ECHCG (ECHOG Barnyardgrass [5]; 0.008 kg/ha): 4.0
Postemergence herbicidal rating ECHCG (ECHOG Barnyardgrass [5]; 0.016 kg/ha): 9.0
Postemergence herbicidal rating ECHCG (ECHOG Barnyardgrass [5]; 0.032 kg/ha): 9.0
Postemergence herbicidal rating ECHCG (ECHOG Barnyardgrass [5]; 0.062 kg/ha): 9.0
Postemergence herbicidal rating GALAP (GALAP Galium [6]; 0.008 kg/ha): 1.0
Postemergence herbicidal rating GALAP (GALAP Galium [6]; 0.016 kg/ha): 2.0
Postemergence herbicidal rating GALAP (GALAP Galium [6]; 0.032 kg/ha): 2.0
Postemergence herbicidal rating GALAP (GALAP Galium [6]; 0.062 kg/ha): 5.0
Postemergence herbicidal rating IPOHE ([7]; 0.008 kg/ha): 9.0
Postemergence herbicidal rating IPOHE ([7]; 0.016 kg/ha): 9.0
Postemergence herbicidal rating IPOHE ([7]; 0.032 kg/ha): 9.0
Postemergence herbicidal rating IPOHE ([7]; 0.062 kg/ha): 9.0
Postemergence herbicidal rating SETVI (SETVI Foxtail, Green [8]; 0.008 kg/ha): 6.0
Postemergence herbicidal rating SETVI (SETVI Foxtail, Green [8]; 0.016 kg/ha): 9.0
Postemergence herbicidal rating SETVI (SETVI Foxtail, Green [8]; 0.032 kg/ha): 9.0
Postemergence herbicidal rating SETVI (SETVI Foxtail, Green [8]; 0.062 kg/ha): 9.0
Postemergence herbicidal rating GLXMAW (GLXMAW Soybean, Williams [9]; 0.008 kg/ha): 5.5
Postemergence herbicidal rating GLXMAW (GLXMAW Soybean, Williams [9]; 0.016 kg/ha): 6.0
Postemergence herbicidal rating GLXMAW (GLXMAW Soybean, Williams [9]; 0.032 kg/ha): 6.5
Postemergence herbicidal rating GLXMAW (GLXMAW Soybean, Williams [9]; 0.062 kg/ha): 7.0
Postemergence herbicidal rating TRZAWR ([10]; 0.008 kg/ha): 4.0
Postemergence herbicidal rating TRZAWR ([10]; 0.016 kg/ha): 5.0
Postemergence herbicidal rating TRZAWR ([10]; 0.032 kg/ha): 5.5
Postemergence herbicidal rating TRZAWR ([10]; 0.062 kg/ha): 6.5
Postemergence herbicidal rating ORYSAT (ORYSAT Rice, Tebonnet [11]; 0.008 kg/ha): 4.0
Postemergence herbicidal rating ORYSAT (ORYSAT Rice, Tebonnet [11]; 0.016 kg/ha): 5.0
Postemergence herbicidal rating ORYSAT (ORYSAT Rice, Tebonnet [11]; 0.032 kg/ha): 5.0
Postemergence herbicidal rating ORYSAT (ORYSAT Rice, Tebonnet [11]; 0.062 kg/ha): 6.5
Postemergence herbicidal rating ZEAMX (ZEAMX Corn, Field [12]; 0.008 kg/ha): 5.0
Postemergence herbicidal rating ZEAMX (ZEAMX Corn, Field [12]; 0.016 kg/ha): 7.5
Postemergence herbicidal rating ZEAMX (ZEAMX Corn, Field [12]; 0.032 kg/ha): 7.5
Postemergence herbicidal rating ZEAMX (ZEAMX Corn, Field [12]; 0.062 kg/ha): 8.5
ABUTH herbicidal rating (ABUTH Velvetleaf [13]; rate 0.016 kg/ha): 1.0
ABUTH herbicidal rating (ABUTH Velvetleaf [13]; rate 0.032 kg/ha): 9.0
ABUTH herbicidal rating (ABUTH Velvetleaf [13]; rate 0.062 kg/ha): 9.0
ABUTH herbicidal rating (ABUTH Velvetleaf [13]; rate 0.125 kg/ha): 9.0
AMBEL herbicidal rating (AMBEL Ragweed, Common [14]; rate 0.016 kg/ha): 0.0
AMBEL herbicidal rating (AMBEL Ragweed, Common [14]; rate 0.032 kg/ha): 4.0
AMBEL herbicidal rating (AMBEL Ragweed, Common [14]; rate 0.062 kg/ha): 3.0
AMBEL herbicidal rating (AMBEL Ragweed, Common [14]; rate 0.125 kg/ha): 4.0
CASOB herbicidal rating (CASOB Sicklepod [15]; rate 0.016 kg/ha): 0.0
CASOB herbicidal rating (CASOB Sicklepod [15]; rate 0.032 kg/ha): 4.0
CASOB herbicidal rating (CASOB Sicklepod [15]; rate 0.062 kg/ha): 3.0
CASOB herbicidal rating (CASOB Sicklepod [15]; rate 0.125 kg/ha): 4.0
CHEAL herbicidal rating ([16]; rate 0.016 kg/ha): 9.0
CHEAL herbicidal rating ([16]; rate 0.032 kg/ha): 9.0
CHEAL herbicidal rating ([16]; rate 0.062 kg/ha): 9.0
CHEAL herbicidal rating ([16]; rate 0.125 kg/ha): 9.0
ECHCG herbicidal rating (ECHOG Barnyardgrass [17]; rate 0.016 kg/ha): 0.0
ECHCG herbicidal rating (ECHOG Barnyardgrass [17]; rate 0.032 kg/ha): 0.0
ECHCG herbicidal rating (ECHOG Barnyardgrass [17]; rate 0.062 kg/ha): 0.0
ECHCG herbicidal rating (ECHOG Barnyardgrass [17]; rate 0.125 kg/ha): 4.0
GALAP herbicidal rating (GALAP Galium [18]; rate 0.032 kg/ha): 0.0
GALAP herbicidal rating (GALAP Galium [18]; rate 0.062 kg/ha): 7.0
GALAP herbicidal rating (GALAP Galium [18]; rate 0.125 kg/ha): 9.0
IPOHE herbicidal rating ([19]; rate 0.016 kg/ha): 0.0
IPOHE herbicidal rating ([19]; rate 0.032 kg/ha): 1.0
IPOHE herbicidal rating ([19]; rate 0.062 kg/ha): 3.0
IPOHE herbicidal rating ([19]; rate 0.125 kg/ha): 9.0
SETVI herbicidal rating (SETVI Foxtail, Green [20]; rate 0.016 kg/ha): 0.0
SETVI herbicidal rating (SETVI Foxtail, Green [20]; rate 0.032 kg/ha): 4.0
SETVI herbicidal rating (SETVI Foxtail, Green [20]; rate 0.062 kg/ha): 5.0
SETVI herbicidal rating (SETVI Foxtail, Green [20]; rate 0.125 kg/ha): 6.0
GLXMAW herbicidal rating (GLXMAW Soybean, Williams [21]; rate 0.016 kg/ha): 0.0
GLXMAW herbicidal rating (GLXMAW Soybean, Williams [21]; rate 0.032 kg/ha): 0.0
GLXMAW herbicidal rating (GLXMAW Soybean, Williams [21]; rate 0.062 kg/ha): 1.0
GLXMAW herbicidal rating (GLXMAW Soybean, Williams [21]; rate 0.125 kg/ha): 0.0
TRZAWR herbicidal rating ([22]; rate 0.016 kg/ha): 0.0
TRZAWR herbicidal rating ([22]; rate 0.032 kg/ha): 0.0
TRZAWR herbicidal rating ([22]; rate 0.062 kg/ha): 0.0
TRZAWR herbicidal rating ([22]; rate 0.125 kg/ha): 2.0
ORYSAT herbicidal rating (ORYSAT Rice, Tebonnet [23]; rate 0.016 kg/ha): 0.0
ORYSAT herbicidal rating (ORYSAT Rice, Tebonnet [23]; rate 0.032 kg/ha): 0.0
ORYSAT herbicidal rating (ORYSAT Rice, Tebonnet [23]; rate 0.062 kg/ha): 0.0
ORYSAT herbicidal rating (ORYSAT Rice, Tebonnet [23]; rate 0.125 kg/ha): 2.0
ZEAMX herbicidal rating (ZEAMX Corn, Field [24]; rate 0.016 kg/ha): 0.0
ZEAMX herbicidal rating (ZEAMX Corn, Field [24]; rate 0.032 kg/ha): 0.0
ZEAMX herbicidal rating (ZEAMX Corn, Field [24]; rate 0.062 kg/ha): 1.0
ZEAMX herbicidal rating (ZEAMX Corn, Field [24]; rate 0.125 kg/ha): 1.0
